From US20200022957A1, “KINASE AND UBIQUITIN LIGASE INHIBITORS AND USES THEREOF” (ALDA S.R.L., priority 2015, published 2020)
Peptide text beside a SMILES is read from it. * marks the point of attachment. Cbz = O=C(OCc1ccccc1)*

Columns and labels:
[1] = system: ATP7B H1069Q; assay: Morphological assay of ATP7B H1069Q exit from ER to Golgi in HeLa cells (fluorescence microscopy); format: cell-based, human; settings: HeLa cells expressing ATP7B H1069Q-GFP; 24 h
Experimental: (§1) Cells were transfected with ATP7B-WT-GFP or ATP7B-H1069Q-GFP, incubated overnight with 200 μM BCS and/or drugs. Fixed cells were further labeled for TGN46 to mark and visualize the Golgi area under a confocal microscope. Under low copper conditions ATP7B-WT traffics to the Golgi from the ER, while ATP7B-H1069Q is retained within the ER. If the drug treatments induce the rescue of trafficking from the ER to the Golgi, the ATP7B-H1069Q-GFP fluorescence in the Golgi area increases. This is measured by quantifying (in 10 different microscopy fields in 100 cells) the increased in fluorescence of ATP7BWT-GFP or ATP7BH1069Q-GFP in the Golgi area (marked by TGN46) and normalizing this value to total cell fluorescence
CFBE or HeLa cells (in case of ATP7B) were transfected with constructs encoding the indicated mutant proteins and treated with JNKi II for 48 h.

[2] = system: ATP7B H1069Q; assay: Traffic-based screening of ATP7B H1069Q-GFP rescue in HEPG2 cells; format: cell-based, human; settings: HEPG2 cells expressing ATP7B H1069Q-GFP; 24 h
Experimental: (§2) Transiently ATP7B H1069Q-GFP expressing HeLa cells (A), HEPG2 cells and (C) human primary hepatocytes (E) treated with the inhibitors for 24 hours, cells are processed for immunofluorescence assay to measure the arrival of the ATP7B wt and H1069Q mutant from the ER to Golgi compartment. A, C, E) Normalized Golgi fluorescence of ATP7B is measured and plotted (n >50 cells). B, D, F) EC50 and recue effect (%) compared to the level ATP7B WT Golgi fluorescence calculated from (A), (C) and (E) respectively. […] All the inhibitor drugs except SB202190 are in clinical trial for treatment of various other diseases.
as §1, with “cell fluorescence […]” for “cell fluorescence”

[3] = system: ATP7BH1069Q; assay: Copper estimation in HepG2 cells overexpressing ATP7BH1069Q; format: cell-based, human; settings: 1 μM, 24 hours, 200 μM copper sulphate for the last 2 hours
Experimental: FIG. 14: The VX-745 and BIRB-796 correctors reduce Copper levels in cells expressing ATP7BH1069Q mutant. HepG2 cells overexpressing indicated ATP7B constructs were incubated with 1 μM each of VX-745, BIRB-796 for 24 hours, for the last 2 hours of incubation with the inhibitors 200 μM copper sulphate is added to the cells with or without 100 μM BCS (copper chelator) as indicated. Cells were incubated with HBSS for 3 hours before lysed and used for copper estimation. Fold change in copper normalized to control is plotted (n=4). Both VX-745 and BIRB-796 reduced Copper levels in ATP7BH1069Q expressing cells (BCS is used in the assay as a control for the sensitivity of the assay).
Cells are lysed in RIPA buffer (150 mM NaCl, 1% Triton X-100, 0.5% deoxycholic acid, 0.1% SDS, 20 mM Tris-HCl, pH 7.4). 500 μg of total protein lysate in 100 μl is taken for copper estimation using Copper assay kit (MAK127 sigma-aldrich) according to the manufacturer's protocol.
ATP7B protein functions in the excretion of copper out of cells and tissue. As ATP7B H1069Q trafficking to the plasma membrane is impaired, the cells cannot excrete the copper, which leads to higher level of intracellular copper. If the corrector drugs promote the correct localization of the mutant, then the copper should be excreted, leading to lower intracellular levels.

[4] = system: ATP7B H1069Q; assay: Traffic-based screening of ATP7B H1069Q-GFP rescue in human primary hepatocytes; format: cell-based; settings: human primary hepatocytes expressing ATP7B H1069Q-GFP; 24 h
Experimental: as §2
as §1, with “cell fluorescence […]” for “cell fluorescence”

[5] = system: F508del-CFTR; assay: F508del-CFTR proteostasis by western blotting (ER band B / Golgi-processed band C) in CFBE cells; format: cell-based, human; settings: for levels of band B and band C of F508del-CFTR: concentration series; for decrease in levels of F508del-CFTR: rapid, abolished by MLK3 downregulation
Experimental: Cells were washed three times in ice-cold Dulbecco's phosphate-buffered saline, and lysed in RIPA buffer (150 mM NaCl, 1% Triton X-100, 0.5% deoxycholic acid, 0.1% SDS, 20 mM Tris-HCl, pH 7.4), supplemented with protease inhibitor cocktail and phosphatase inhibitors. The lysates were clarified by centrifugation at 15000×g for 15 min, and the supernatants were resolved by SDS-PAGE. BCA Protein Assay kit (Pierce) was used to quantitate protein levels before loading. The western blots were decorated with appropriate antibodies and developed using ECL. The blots were then exposed to x-ray films and exposure time was varied to obtain optimal signal. The x-ray films were then scanned and the bands were quantitated using ImageJ gel-analysis tool. The protein concentration and the exposures used for quantitation of the blots were optimized to be in a linear range of detection.
Inventors then turned to experimental validation of the role of the CORE genes in the regulation of F508del-CFTR proteostasis. Experiments were carried out using a characterised biochemical assay that detects both the amount of core-glycosylated CFTR trapped in the ER (band B with Western blotting) and the amount of CFTR fully glycosylated in the Golgi (most of which presumably resides at the PM; band C with Western blotting).

[6] = system: proteasome; assay: Proteasome ZsProsensor-1 fluorescence in CFBE cells; format: cell-based, human; settings: MG132 20 μg/ml for 3 h, positive control
Experimental: CFBE cells treated with MLK3 or JNK2 siRNA for 72 h were transfected with Proteasome ZsProsensor-1 for the final 24 h, and the levels Proteasome ZsProsensor-1 monitored by fluorescence microscopy. Treatment with MG132 (20 μg/ml for 3 h), a proteasomal inhibitor, was used as a positive control.

[7] = system: JNK; assay: phospho-c-jun levels by western blotting as a measure of JNK inhibition in CFBE cells; format: cell-based, human; settings: 24 h, oxozeaenol 5 μM
Experimental: A. CFBE cells were treated with indicated JNK inhibitors for 24 h and processed for western blotting. The levels of phospho-c-jun as a measure of JNK inhibition was monitored. […] B. CFBE cells were treated with TAK1 or MLK3 siRNA as indicated and changes in F508del-CFTR proteostasis were monitored by western blotting.
C. CFBE cells were treated with 5 μM oxozeaenol for 48 h, or with MLK3 siRNA, or with both, and the correction of the F508del-CFTR folding/trafficking defect was monitored by changes in the levels of band C. There was no additive effect observed with the combination of MLK3 downregulation and oxozeaenol treatment. The quantitated band C levels are expressed as mean±SD (n>3). D. CFBE cells were treated with 5 μM oxozeaenol for 24 h, and the activity of the JNK pathway was measured by western blotting for phospho c-jun levels and F508del-CFTR. […] E. CFBE cells were treated with flunarizine (at concentrations 6.25-50 μM) targeting the CAMKK2 pathway for 48 h and the effect on F508del-CFTR proteostasis measured by western blotting. Treatment with flunarizine increased the levels of band C of F508del-CFTR. […] F. CFBE cells transiently transfected with the P-glycoprotein mutant (P-gp DY490), the NCC mutant (R948X), or the hERG mutant (G601S) were treated with JNKi II for 24 h, and the effect of the drug on their proteostasis monitored by western blotting. […]

[8] = system: F508del-CFTR; settings: primary human bronchial epithelial cells (Trzcinska-Daneluti et al. 2012); cited from earlier work
[9] = system: ATP7BH1069Q; assay: Immunofluorescence assay for correction of ATP7B: cells with ATP7BH1069Q signal in the ER, HeLa cells; format: cell-based, human; settings: 24 h, SB202190 5 μM, VX-745 1 μM, SP600125 2 μM, Oxozeaenol 5 μM, 100 μM CuSO4 2 h
Experimental: (A) HeLa cells were infected with Ad-ATP7BWT-GFP (Chesi et al., 2016) or Ad-ATP7BH1069Q-GFP, incubated overnight with 200 μM BCS, and incubated for an additional 2 h with 100 μM CuSO4. In response to Cu, ATP7BWT traffics from the Golgi to PM and vesicle, while ATP7BH1069Q are retained within the ER under high Cu conditions. Addition of p38 inhibitor SB202190 (5 μM), VX-745(1 μM), JNK inhibitor SP600125 (2 μM) and Oxozeaenol (5 μM) (as indicated in corresponding panels) to the cells 24 h corrects ATP7BH1069Q from the ER to PM and vesicles (arrows) (B) Cells were treated as in panel A. The percentage of the cells (average±SD, n=50 fields) with an ATP7B signal in the ER, were calculated.
Cells were fixed with 4% paraformaldehyde in 0.2 M HEPES for 10 mins, permeabilized, labeled with primary and secondary antibodies, and examined with a ZEISS LSM 700 confocal microscope equipped with a 63×1.4 numerical aperture oil objective. The cells were scored based on the disappearance of ATP7B from the ER.

## Cc1ccc(-n2nc(C(C)(C)C)cc2NC(=O)Nc2ccc(OCCN3CCOCC3)c3ccccc23)cc1 [BIRB-796]
[1]
  rescue of ATP7B H1069Q localization (ER exit to the Golgi compartment): potently rescue
[2]
  rescue of ATP7B H1069Q (ER to Golgi): rescue H1069Q potently
[3]
  Copper levels in ATP7BH1069Q expressing cells: reduced
[4]
  rescue of ATP7B H1069Q (ER to Golgi): rescue H1069Q potently

## C=C(c1ccc(C(=O)O)cc1)c1cc2c(cc1C)C(C)(C)CCC2(C)C [Bexarotene]
[1]
  rescue of ATP7B H1069Q localization (ER exit to the Golgi compartment): potently rescue
[5]; 48 h
  levels of band B and band C of F508del-CFTR: robust increases

## CC(=O)Nc1ccc(C(=O)NC(C)(C)C)cc1 [CPI-1189]
[1]
  rescue of ATP7B H1069Q localization (ER exit to the Golgi compartment): potently rescue

## C=C(C)[C@@H]1CCC(C)=C[C@H]1c1c(O)cc(CCCCC)cc1O [Cannabidiol]
[1]
  rescue of ATP7B H1069Q localization (ER exit to the Golgi compartment): potently rescue

## CC(O)C(=O)O.CN1CCN(c2ccc3nc(-c4c(N)c5c(F)cccc5[nH]c4=O)[nH]c3c2)CC1 [Dovitinib lactate]
[5]; 48 h
  levels of band B and band C of F508del-CFTR: robust increases

## Cc1cc(Nc2cc(N3CCN(C)CC3)nc(/C=C/c3ccccc3)n2)n[nH]1 [ENMD-2076]
[1]
  rescue of ATP7B H1069Q localization (ER exit to the Golgi compartment): potently rescue

## Fc1ccc(C(c2ccc(F)cc2)N2CCN(C/C=C/c3ccccc3)CC2)cc1 [Flunarizine]
[5]; 48 h
  correction of F508del-CFTR (levels of band C): increased

## OO [H2O2]
[5]; H2O2 at non-toxic concentrations, within a few minutes
  F508del-CFTR levels: marked drop

## N#Cc1c(NC(=O)c2cccc3ccccc23)sc2c1CCCC2 [JNKi IX]
[5]; 48 h
  levels of band B and band C of F508del-CFTR: robust increases

## O=[N+]([O-])c1cnc(Sc2nc3ccccc3s2)s1 [JNKi XI]
[5]; 48 h
  levels of band B and band C of F508del-CFTR: robust increases

## COC(=O)[C@@]1(O)C[C@H]2O[C@]1(C)n1c3ccccc3c3c4c(c5c6ccccc6n2c5c31)C(=O)NC4 [K252a]
[5]; 48 h
  correction of F508del-CFTR (levels of band C): no clear effects

## CC(C)C[C@@H](C=O)NC(=O)[C@H](CC(C)C)NC(=O)[C@H](CC(C)C)NC(=O)OCc1ccccc1 [MG132] (Cbz-Leu-Leu-Leu-aldehyde)
[6]
  fluorescence levels of ZsProsensor-1 compared to untreated cells: increases

## COc1cc(O)c2c(c1)/C=C/C[C@H](O)[C@H](O)C(=O)/C=C\C[C@H](C)OC2=O [Oxozeaenol, (5Z)-7-oxozeaenol]
[7]
  phospho-c-jun levels: reduced
[8]
  correction of the F508del-CFTR proteostasis defect: effective
[9]
  percentage of the cells exhibiting ATP7BH1069Q in the ER: reduced
[5]; 48 h
  levels of band B and band C of F508del-CFTR: markedly increased

## Cc1ccc(Nc2nccc(N(C)c3ccc4c(C)n(C)nc4c3)n2)cc1S(N)(=O)=O [Pazopanib]
[5]; 48 h
  levels of band B and band C of F508del-CFTR: robust increases

## Oc1ccc(-c2nc(-c3ccncc3)c(-c3ccc(F)cc3)[nH]2)cc1 [SB202190]
[9]
  percentage of the cells exhibiting ATP7BH1069Q in the ER: reduced

## O=C(O)c1ccc2c3c1cccc3c(=O)n1c3ccccc3nc21 [STO-609]
[5]; 48 h
  correction of F508del-CFTR (levels of band C): did not show any effect

## O=c1ncn2nc(Sc3ccc(F)cc3F)ccc2c1-c1c(Cl)cccc1Cl [VX-745]
[2]
  rescue of ATP7B H1069Q (ER to Golgi): rescue H1069Q potently
[3]
  Copper levels in ATP7BH1069Q expressing cells: reduced
[4]
  rescue of ATP7B H1069Q (ER to Golgi): rescue H1069Q potently
[9]
  percentage of the cells exhibiting ATP7BH1069Q in the ER: reduced

## Cc1ccc(NC(=O)C2(c3ccc4c(c3)OC(F)(F)O4)CC2)nc1-c1cccc(C(=O)O)c1 [VX-809]
[5]; 48 h
  level of ER-localised band B of F508del-CFTR: limited increase
[5]; VX-809 as reference for correction
  increase of band C levels over control: 4-5 fold

## O=C1c2c(O)ccc(O)c2C(=O)c2c(NCCNCCO)ccc(NCCNCCO)c21 [mitoxantrone]
[5]; 48 h
  levels of band B and band C of F508del-CFTR: potently increase

## COc1ccc(CCN(C)CCCC(C#N)(c2ccc(OC)c(OC)c2)C(C)C)cc1OC (stereo not drawn) [verapamil]
[5]; 48 h
  correction of F508del-CFTR (levels of band C): did not show any effect

## TGF-β
[5]
  decrease in levels of F508del-CFTR: 50%

## TNF-α
[5]
  decrease in levels of F508del-CFTR: 50%
